The text below walks through data of patent US20240025906A1 (NEURON23, INC., priority 2022, published 2024).

Structures can show the parent of a compound that is named as a salt.

One test addresses T1, TYK2 JH2 (Homo sapiens, UniProt P29597).
T1 construct: purchased DiscoverX (KINOMEscan KdELECT service); host or cells: E. coli BL21-derived (T7 phage display) or HEK-293
Kind of test: TYK2 JH2 binding assay (KINOMEscan KdELECT competitive binding). As to conditions: TYK2 JH2 domain, KINOMEscan KdELECT (Assay A); read-out: Biochemical TYK2_DiscoverX_JH2_BND_Kd. In short, it runs like this: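 Kd values come from qPCR measurement of kinase retained on an immobilized-ligand resin after 1 h room-temperature competition with compound in an 11-point, 3-fold series.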

Test [1] relates to JAK1/TYK2 pSTAT5 (Tyr694/699) in THP-1 cell line. Kind of test: IFNa-stimulated JAK1/TYK2 pSTAT5 (Tyr694/699) inhibition cellular assay, AlphaLISA. The test is classed as cell-based. Conditions: Homo sapiens; THP-1 cells, IFNa-stimulated, AlphaLISA (Assay B); read-out: Cellular_THP1_IFNa-pSTATS_TYK2. In a few lines: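 An eight-point 6-fold titration of compound (0.04–10000 nM final) is given to THP-1 cells for 1 h before 30 min of IFNa exposure. Phospho-STAT5 is read by AlphaLISA at 615 nm. IC50 values are derived by logistic regression with bottom set to 0 and Hill slope set to −1.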

T1 sequence (P29597 589-875 limits assumed): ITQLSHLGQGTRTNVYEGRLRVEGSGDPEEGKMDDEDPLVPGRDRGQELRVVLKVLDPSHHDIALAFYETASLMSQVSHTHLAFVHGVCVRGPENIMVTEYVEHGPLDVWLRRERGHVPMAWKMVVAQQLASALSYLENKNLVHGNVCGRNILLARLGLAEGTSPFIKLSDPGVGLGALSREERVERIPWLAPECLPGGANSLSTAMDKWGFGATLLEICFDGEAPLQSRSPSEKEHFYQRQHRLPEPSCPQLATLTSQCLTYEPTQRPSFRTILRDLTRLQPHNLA

As for `CNc1ncc(C23CC(C2)C3)c2cc(NC(=O)C3CC3)ncc12` [Example 844, N-(5-(bicyclo[1.1.1]pentan-1-yl)-8-(methylamino)-2,7-naphthyridin-3-yl)cyclopropanecarboxamide], at TYK2 JH2, the Kd is ≤ 100 nM. In addition, the IC50 in test [1] was > 500 nM.

`CNc1ncc(C23CC(c4ccncc4)(C2)C3)c2cc(NC(=O)C3CC3)ncc12` [Example 845, N-(8-(methylamino)-5-(3-(pyridin-4-yl)bicyclo[1.1.1]pentan-1-yl)-2,7-naphthyridin-3-yl)cyclopropanecarboxamide]: the Kd at TYK2 JH2 was ≤ 100 nM. For the same molecule, the IC50 in test [1] was > 500 nM.

Turning to `CCNc1ncc(-c2ccccc2)c2cc(NC(=O)C3CC3)ncc12` [Example 846, N-(8-(ethylamino)-5-phenyl-2,7-naphthyridin-3-yl)cyclopropanecarboxamide], at TYK2 JH2, the Kd was ≤ 100 nM. Moreover, in test [1], the IC50 was > 500 nM.

Consider `CNc1ncc(-c2ccc(-c3c(C)cnn3C)cc2)c2cc(NC(=O)C3CC3)ncc12` [Example 847, N-(5-(4-(1,4-dimethyl-1H-pyrazol-5-yl)phenyl)-8-(methylamino)-2,7-naphthyridin-3-yl)cyclopropanecarboxamide], for which the Kd at TYK2 JH2 was ≤ 100 nM. Moreover, the IC50 in test [1] is ≤ 500 nM.

As to `CNc1ncc(CCc2ccc(OC(F)(F)F)cc2)c2cc(NC(=O)C3CC3)ncc12` [Example 848, N-(8-(methylamino)-5-(4-(trifluoromethoxy)phenethyl)-2,7-naphthyridin-3-yl)cyclopropanecarboxamide], on TYK2 JH2, the Kd was ≤ 100 nM. For the same molecule, in test [1], the IC50 is > 500 nM.

As for `CNc1ncc(C2=CCc3ccccc3O2)c2cc(NC(=O)C3CC3)ncc12` [Example 849, N-(5-(4H-chromen-2-yl)-8-(methylamino)-2,7-naphthyridin-3-yl)cyclopropanecarboxamide], the Kd on TYK2 JH2 is ≤ 100 nM. Further, the IC50 in test [1] is > 500 nM.

Regarding `CNc1ncc(C2=Cc3ccccc3CO2)c2cc(NC(=O)C3CC3)ncc12` [Example 850, N-(5-(1H-isochromen-3-yl)-8-(methylamino)-2,7-naphthyridin-3-yl)cyclopropanecarboxamide], the Kd on TYK2 JH2 is ≤ 100 nM. Moreover, the IC50 in test [1] was ≤ 500 nM.

Take `CNc1ncc(-c2ccc(-c3cnn(C)n3)cc2)c2cc(NC(=O)C3CC3)ncc12` [Example 851, N-(5-(4-(2-methyl-2H-1,2,3-triazol-4-yl)phenyl)-8-(methylamino)-2,7-naphthyridin-3-yl)cyclopropanecarboxamide]: the Kd on TYK2 JH2 is ≤ 100 nM. The IC50 in test [1] was ≤ 500 nM.

In the case of `CNc1ncc(-c2ccn(CCOC)n2)c2cc(NC(=O)C3CC3)ncc12` [Example 852, N-(5-(1-(2-methoxyethyl)-1H-pyrazol-3-yl)-8-(methylamino)-2,7-naphthyridin-3-yl)cyclopropanecarboxamide], the Kd on TYK2 JH2 was ≤ 100 nM. Besides, in test [1], the IC50 was > 500 nM.

For `CNc1ncc(-c2nc3n(n2)CCC3)c2cc(NC(=O)C3CC3)ncc12` [Example 853, N-(5-(6,7-dihydro-5H-pyrrolo[1,2-b][1,2,4]triazol-2-yl)-8-(methylamino)-2,7-naphthyridin-3-yl)cyclopropanecarboxamide formate], the Kd at TYK2 JH2 is ≤ 100 nM. Besides, in test [1], the IC50 was > 500 nM.

Consider `CNc1ncc(-c2nc3c(o2)CCC(C(F)(F)F)C3)c2cc(NC(=O)C3CC3)ncc12` (centres unmarked) [Example 855, N-(8-(methylamino)-5-(5-(trifluoromethyl)-4,5,6,7-tetrahydrobenzo[d]oxazol-2-yl)-2,7-naphthyridin-3-yl)cyclopropanecarboxamide], for which, on TYK2 JH2, the Kd was ≤ 100 nM. Besides, the IC50 in test [1] was > 500 nM.

Turning to `CNc1ncc(-c2ccc(Oc3cncs3)cc2)c2cc(NC(=O)C3CC3)ncc12` [Example 857, N-(8-(methylamino)-5-(4-(thiazol-5-yloxy)phenyl)-2,7-naphthyridin-3-yl)cyclopropanecarboxamide], the Kd on TYK2 JH2 is ≤ 100 nM. Besides, the IC50 in test [1] was ≤ 500 nM.

`CNc1ncc(-c2ccc(Oc3ccncc3)cc2)c2cc(NC(=O)C3CC3)ncc12` [Example 858, N-(8-(methylamino)-5-(4-(pyridin-4-yloxy)phenyl)-2,7-naphthyridin-3-yl)cyclopropanecarboxamide]: the Kd at TYK2 JH2 is ≤ 100 nM. The IC50 in test [1] was ≤ 500 nM.

In the case of `CNc1ncc(-c2ccc(OCCOC)cc2)c2cc(NC(=O)C3CC3)ncc12` [Example 859, N-(5-(4-(2-methoxyethoxy)phenyl)-8-(methylamino)-2,7-naphthyridin-3-yl)cyclopropanecarboxamide], at TYK2 JH2, the Kd is ≤ 100 nM. Further, the IC50 in test [1] is ≤ 500 nM.

As for `CNc1ncc(-c2ccc(N3CCC3CC#N)cc2)c2cc(NC(=O)C3CC3)ncc12` (centres unmarked) [Example 860, N-(5-(4-(2-(cyanomethyl)azetidin-1-yl)phenyl)-8-(methylamino)-2,7-naphthyridin-3-yl)cyclopropanecarboxamide], at TYK2 JH2, the Kd is ≤ 100 nM. Moreover, the IC50 in test [1] was > 500 nM.

As to `CNc1ncc(-c2ccc(O)cc2)c2cc(NC(=O)C3CC3)ncc12` [Example 861, N-(5-(4-hydroxyphenyl)-8-(methylamino)-2,7-naphthyridin-3-yl)cyclopropanecarboxamide], the Kd on TYK2 JH2 is ≤ 100 nM. In addition, the IC50 in test [1] was ≤ 500 nM.

`CNc1ncc(-c2ccc(Oc3ccnc(C)c3)cc2)c2cc(NC(=O)C3CC3)ncc12` [Example 862, N-(8-(methylamino)-5-(4-((2-methylpyridin-4-yl)oxy)phenyl)-2,7-naphthyridin-3-yl)cyclopropanecarboxamide]: on TYK2 JH2, the Kd is ≤ 100 nM. In addition, in test [1], the IC50 is ≤ 500 nM.

Turning to `CNc1ncc(-c2ccc(Oc3ccccn3)cc2)c2cc(NC(=O)C3CC3)ncc12` [Example 863, N-(8-(methylamino)-5-(4-(pyridin-2-yloxy)phenyl)-2,7-naphthyridin-3-yl)cyclopropanecarboxamide], the Kd on TYK2 JH2 was ≤ 100 nM. For the same molecule, the IC50 in test [1] was ≤ 500 nM.

In the case of `CNc1ncc(-c2ccc(Oc3cccnc3)cc2)c2cc(NC(=O)C3CC3)ncc12` [Example 864, N-(8-(methylamino)-5-(4-(pyridin-3-yloxy)phenyl)-2,7-naphthyridin-3-yl)cyclopropanecarboxamide], the Kd at TYK2 JH2 is ≤ 100 nM. The IC50 in test [1] is ≤ 500 nM.

In the case of `CNc1ncc(-c2ccc(Oc3ncn(C)n3)cc2)c2cc(NC(=O)C3CC3)ncc12` [Example 865, N-(5-(4-((1-methyl-1H-1,2,4-triazol-3-yl)oxy)phenyl)-8-(methylamino)-2,7-naphthyridin-3-yl)cyclopropanecarboxamide], the Kd on TYK2 JH2 is ≤ 100 nM. In addition, the IC50 in test [1] is ≤ 500 nM.

As for `CNc1ncc(CCc2ccc3nnn(C)c3c2)c2cc(NC(=O)C3CC3)ncc12` [Example 866, N-(5-(2-(1-methyl-1H-benzo[d][1,2,3]triazol-6-yl)ethyl)-8-(methylamino)-2,7-naphthyridin-3-yl)cyclopropanecarboxamide], at TYK2 JH2, the Kd is ≤ 100 nM. Also, the IC50 in test [1] is ≤ 500 nM.

In the case of `CNc1ncc(-c2ccc(OCc3ccncc3)cc2)c2cc(NC(=O)C3CC3)ncc12` [Example 867, N-(8-(methylamino)-5-(4-(pyridin-4-ylmethoxy)phenyl)-2,7-naphthyridin-3-yl)cyclopropanecarboxamide], on TYK2 JH2, the Kd was ≤ 100 nM. In test [1], the IC50 was ≤ 500 nM.

As for `CNc1ncc(-c2ccc(COc3ccncc3)cc2)c2cc(NC(=O)C3CC3)ncc12` [Example 868, N-(8-(methylamino)-5-(4-((pyridin-4-yloxy)methyl)phenyl)-2,7-naphthyridin-3-yl)cyclopropanecarboxamide], the Kd at TYK2 JH2 was ≤ 100 nM. Further, the IC50 in test [1] is ≤ 500 nM.

For `CNc1ncc(-c2ccc(Cn3ccc(=O)cc3)cc2)c2cc(NC(=O)C3CC3)ncc12` [Example 869, N-(8-(methylamino)-5-(4-((4-oxopyridin-1(4H)-yl)methyl)phenyl)-2,7-naphthyridin-3-yl)cyclopropanecarboxamide], the Kd at TYK2 JH2 was ≤ 100 nM. Moreover, the IC50 in test [1] is > 500 nM.

On to `CNc1ncc(-c2ccc(-c3cnnn3C)cc2)c2cc(NC(=O)C3CC3)ncc12` [Example 870, N-(5-(4-(1-methyl-1H-1,2,3-triazol-5-yl)phenyl)-8-(methylamino)-2,7-naphthyridin-3-yl)cyclopropanecarboxamide], for which the Kd at TYK2 JH2 was ≤ 100 nM. In test [1], the IC50 is ≤ 500 nM.

Take `CNc1ncc(-c2ccc(-c3cn(C)nn3)cc2)c2cc(NC(=O)C3CC3)ncc12` [Example 871, N-(5-(4-(1-methyl-1H-1,2,3-triazol-4-yl)phenyl)-8-(methylamino)-2,7-naphthyridin-3-yl)cyclopropanecarboxamide]: the Kd on TYK2 JH2 was ≤ 100 nM. Besides, the IC50 in test [1] is ≤ 500 nM.

As for `CNc1ncc(-c2nn3ccnc3s2)c2cc(NC(=O)C3CC3)ncc12` [Example 872, N-(5-(imidazo[2,1-b][1,3,4]thiadiazol-2-yl)-8-(methylamino)-2,7-naphthyridin-3-yl)cyclopropanecarboxamide], the Kd at TYK2 JH2 is ≤ 100 nM. The IC50 in test [1] is ≤ 500 nM.

Take `CNc1ncc(-c2nn3c(C)ncc3o2)c2cc(NC(=O)C3CC3)ncc12` [Example 873, N-(8-(methylamino)-5-(5-methylimidazo[5,1-b][1,3,4]oxadiazol-2-yl)-2,7-naphthyridin-3-yl)cyclopropanecarboxamide]: the Kd on TYK2 JH2 was ≤ 100 nM. In addition, the IC50 in test [1] was ≤ 500 nM.
